Earlier results in US20240124428A1, “HETEROCYCLIC INHIBITORS OF PCSK9” (CARDIO THERAPEUTICS PTY LTD, priority 2020, published 2024).
Marks after values point to notes of the source that are not given here.

How the values were obtained:
[1] = target: T1, binding between PCSK9 and the LDL receptor (Homo sapiens, UniProt Q8NBP7); conditions: comparator; data from Evison et al. 2020; read-out: PCSK9-LDLR binding assay IC50; cited from earlier work
T1 construct: purchased CircuLex

[2] = target: T2, CYP2D6 (Homo sapiens, UniProt P10635); conditions: data from Evison et al. 2020; cited from earlier work
T2 construct: using human liver microsomes; from tissue; host or cells: human liver microsomes

[3] = target: T3, hERG channel (Homo sapiens, UniProt Q12809); conditions: data from Evison et al. 2020; cited from earlier work
T3 construct: expressed in transfected cells; host or cells: CHO

[4] = test system: HepG2 cells; conditions: data from Evison et al. 2020; read-out: HepG2 cytotoxicity IC50; cited from earlier work
[5] = target: T4, CYP3A4 (Homo sapiens, UniProt P08684); conditions: data from Evison et al. 2020; cited from earlier work
T4 construct: using human liver microsomes; from tissue; host or cells: human liver microsomes

[6] = data from Evison et al. 2020; conditions not given; cited from earlier work

T2 sequence (P10635 whole entry): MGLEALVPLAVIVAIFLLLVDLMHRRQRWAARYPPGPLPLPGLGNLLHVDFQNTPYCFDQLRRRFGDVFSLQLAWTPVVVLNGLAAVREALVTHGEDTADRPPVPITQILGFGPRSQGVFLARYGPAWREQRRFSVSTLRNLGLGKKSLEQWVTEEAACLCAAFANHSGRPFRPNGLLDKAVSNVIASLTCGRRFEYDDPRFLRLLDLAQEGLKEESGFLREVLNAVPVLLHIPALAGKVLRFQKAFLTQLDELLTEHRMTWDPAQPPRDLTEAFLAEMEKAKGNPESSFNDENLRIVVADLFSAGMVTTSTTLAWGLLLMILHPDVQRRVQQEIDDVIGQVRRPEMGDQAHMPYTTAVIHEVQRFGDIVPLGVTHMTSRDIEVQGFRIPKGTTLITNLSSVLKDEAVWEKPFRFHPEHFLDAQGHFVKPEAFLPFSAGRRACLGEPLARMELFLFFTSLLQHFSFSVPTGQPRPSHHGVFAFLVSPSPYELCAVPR
T1 sequence (Q8NBP7 153-692): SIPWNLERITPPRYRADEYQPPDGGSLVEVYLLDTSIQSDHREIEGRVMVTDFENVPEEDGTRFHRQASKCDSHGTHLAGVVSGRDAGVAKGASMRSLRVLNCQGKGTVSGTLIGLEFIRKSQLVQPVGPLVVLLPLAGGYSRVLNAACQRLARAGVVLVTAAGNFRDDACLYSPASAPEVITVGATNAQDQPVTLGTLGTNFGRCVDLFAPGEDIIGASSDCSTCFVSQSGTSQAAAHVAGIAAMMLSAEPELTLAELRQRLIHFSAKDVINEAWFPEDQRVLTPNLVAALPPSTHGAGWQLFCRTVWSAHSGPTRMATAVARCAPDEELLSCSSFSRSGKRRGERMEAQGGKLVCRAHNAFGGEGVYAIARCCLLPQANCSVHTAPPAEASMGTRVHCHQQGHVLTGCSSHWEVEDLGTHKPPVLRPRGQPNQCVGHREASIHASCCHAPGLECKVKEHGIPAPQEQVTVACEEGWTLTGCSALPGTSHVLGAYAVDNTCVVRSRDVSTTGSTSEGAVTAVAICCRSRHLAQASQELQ
T1 sequence (Q8NBP7 31-152 partner limits assumed): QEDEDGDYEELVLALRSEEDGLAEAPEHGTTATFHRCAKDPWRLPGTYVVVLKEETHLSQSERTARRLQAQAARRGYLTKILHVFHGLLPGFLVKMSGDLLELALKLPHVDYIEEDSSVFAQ
T4 sequence (P08684 whole entry): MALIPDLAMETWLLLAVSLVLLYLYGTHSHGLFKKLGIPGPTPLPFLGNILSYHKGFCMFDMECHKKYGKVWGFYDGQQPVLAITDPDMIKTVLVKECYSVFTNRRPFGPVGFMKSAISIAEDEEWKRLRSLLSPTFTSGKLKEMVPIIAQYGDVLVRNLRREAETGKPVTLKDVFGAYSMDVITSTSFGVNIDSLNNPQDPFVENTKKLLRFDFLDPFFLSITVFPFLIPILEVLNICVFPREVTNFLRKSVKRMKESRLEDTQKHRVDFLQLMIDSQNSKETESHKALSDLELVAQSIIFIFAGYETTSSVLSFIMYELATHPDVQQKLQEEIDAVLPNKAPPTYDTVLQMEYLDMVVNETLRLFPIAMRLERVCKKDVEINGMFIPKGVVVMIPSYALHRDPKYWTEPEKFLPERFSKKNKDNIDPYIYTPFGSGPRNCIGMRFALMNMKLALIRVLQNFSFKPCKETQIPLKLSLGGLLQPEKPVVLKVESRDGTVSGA
T3 sequence (Q12809 whole entry): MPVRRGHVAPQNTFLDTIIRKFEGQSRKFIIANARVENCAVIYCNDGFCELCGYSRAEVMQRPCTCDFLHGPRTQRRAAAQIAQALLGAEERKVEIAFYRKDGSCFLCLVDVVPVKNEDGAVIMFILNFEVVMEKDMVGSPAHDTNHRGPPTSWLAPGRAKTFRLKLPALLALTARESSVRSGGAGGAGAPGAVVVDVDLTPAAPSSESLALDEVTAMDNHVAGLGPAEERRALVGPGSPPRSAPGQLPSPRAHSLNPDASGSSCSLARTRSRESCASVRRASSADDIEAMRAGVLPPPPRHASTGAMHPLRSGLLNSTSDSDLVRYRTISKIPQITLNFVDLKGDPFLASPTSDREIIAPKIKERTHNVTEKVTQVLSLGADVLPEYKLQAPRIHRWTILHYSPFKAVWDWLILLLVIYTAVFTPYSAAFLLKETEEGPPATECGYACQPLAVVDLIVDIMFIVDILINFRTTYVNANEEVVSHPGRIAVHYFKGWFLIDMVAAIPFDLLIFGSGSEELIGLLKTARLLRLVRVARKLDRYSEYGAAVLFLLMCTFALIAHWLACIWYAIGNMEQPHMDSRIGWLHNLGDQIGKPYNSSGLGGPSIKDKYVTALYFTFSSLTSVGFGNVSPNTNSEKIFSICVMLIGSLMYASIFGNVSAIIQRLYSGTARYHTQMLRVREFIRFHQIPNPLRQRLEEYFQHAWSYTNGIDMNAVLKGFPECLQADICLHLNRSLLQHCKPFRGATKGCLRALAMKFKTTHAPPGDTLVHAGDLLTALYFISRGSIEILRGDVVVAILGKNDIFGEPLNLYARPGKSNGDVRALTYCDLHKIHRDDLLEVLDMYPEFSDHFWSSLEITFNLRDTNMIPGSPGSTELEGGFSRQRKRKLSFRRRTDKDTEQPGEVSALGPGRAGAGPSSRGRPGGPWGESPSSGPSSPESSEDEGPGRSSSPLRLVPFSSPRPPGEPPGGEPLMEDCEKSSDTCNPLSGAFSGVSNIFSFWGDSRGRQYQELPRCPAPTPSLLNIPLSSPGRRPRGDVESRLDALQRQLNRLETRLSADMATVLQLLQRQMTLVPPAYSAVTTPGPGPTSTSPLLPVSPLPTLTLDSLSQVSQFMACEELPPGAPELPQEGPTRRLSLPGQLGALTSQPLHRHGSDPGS

With `Cc1cn(-c2cc(CN3CCC[C@H](N)C3)cc(NC(=O)c3ccc(C)c(Oc4ccccc4)c3)c2)cn1` [3f] as the compound, how does the IC50 [1] read?
Its IC50 is 0.939 µM.

What about the “CYP2D6 (% inhibition at 10 μM)” value [2] of the same compound?
Its value is 82.2%.

And the IC50 [3]?
The IC50 was 19 µM.

And the IC50 [4]?
The IC50 was 5.23 µM.

And the “CYP3A4 (% inhibition at 10 μM)” value [5]?
The value was 95.0%.

What about the “AUClast (h*ng/ml)” value [6] of the same compound?
Its value is 92.3** h*ng/ml.

What about the “Bioavailability (%)” value [6] of the same compound?
The value was 0.5** %.

What about the “CMax (ng/ml)” value [6] of the same compound?
Its value is 52.5** ng/ml.

And the “VSS (L/kg)” value [6]?
Its value is 3.87** L/kg.
